Experiment [1] in a line: Induction of anti-CD3 antibodies-stimulated human T cell activation at 1 uM assessed fold increase in CD25 expression measured by ELISA assay. Also: reference of the scale not given here. It is filed as functional, T cell line.
The nature of experiment [2]: Induction of anti-CD3/CD28 antibodies-stimulated human T cell activation at 1 uM assessed fold increase in CD25 expression measured by ELISA assay. It is filed as functional, T cell line.
A short description of experiment [3]: Induction of anti-CD3/CD28 antibodies-stimulated human T cell activation at 0.3 uM assessed fold increase in CD25 expression measured by ELISA assay. It is filed as functional, T cell line.
Experiment [4] has as its target E3 ubiquitin-protein ligase CBL-B (Homo sapiens, UniProt Q13191). In words: Inhibition of N-terminal Avi-tagged human CBL-B (36 to 427 residues) incubated with 60 nM Src kinase for 1.5 hrs followed by incubation with fluorescently labeled UbcH5B-Ub for 1 hr and measured by TR-FRET assay. It is filed as single protein.
Experiment [5] can be described thus: Induction of anti-CD3 antibodies-stimulated human T cell activation at 1 uM assessed fold increase in IL-2 secretion measured by ELISA assay. Also: reference of the scale not given here. It is filed as functional, T cell line.
Experiment [6] is described as follows: Induction of anti-CD3/CD28 antibodies-stimulated human T cell activation at 1 uM assessed fold increase in IL-2 secretion measured by ELISA assay. It is filed as functional, T cell line.
Experiment [7] can be described thus: Induction of anti-CD3/CD28 antibodies-stimulated human T cell activation at 0.3 uM assessed fold increase in IL-2 secretion measured by ELISA assay. It counts as functional, T cell line.

Molecules are shown by their SMILES.

Sequence of E3 ubiquitin-protein ligase CBL-B (Q13191 whole entry, the tested form may be a part): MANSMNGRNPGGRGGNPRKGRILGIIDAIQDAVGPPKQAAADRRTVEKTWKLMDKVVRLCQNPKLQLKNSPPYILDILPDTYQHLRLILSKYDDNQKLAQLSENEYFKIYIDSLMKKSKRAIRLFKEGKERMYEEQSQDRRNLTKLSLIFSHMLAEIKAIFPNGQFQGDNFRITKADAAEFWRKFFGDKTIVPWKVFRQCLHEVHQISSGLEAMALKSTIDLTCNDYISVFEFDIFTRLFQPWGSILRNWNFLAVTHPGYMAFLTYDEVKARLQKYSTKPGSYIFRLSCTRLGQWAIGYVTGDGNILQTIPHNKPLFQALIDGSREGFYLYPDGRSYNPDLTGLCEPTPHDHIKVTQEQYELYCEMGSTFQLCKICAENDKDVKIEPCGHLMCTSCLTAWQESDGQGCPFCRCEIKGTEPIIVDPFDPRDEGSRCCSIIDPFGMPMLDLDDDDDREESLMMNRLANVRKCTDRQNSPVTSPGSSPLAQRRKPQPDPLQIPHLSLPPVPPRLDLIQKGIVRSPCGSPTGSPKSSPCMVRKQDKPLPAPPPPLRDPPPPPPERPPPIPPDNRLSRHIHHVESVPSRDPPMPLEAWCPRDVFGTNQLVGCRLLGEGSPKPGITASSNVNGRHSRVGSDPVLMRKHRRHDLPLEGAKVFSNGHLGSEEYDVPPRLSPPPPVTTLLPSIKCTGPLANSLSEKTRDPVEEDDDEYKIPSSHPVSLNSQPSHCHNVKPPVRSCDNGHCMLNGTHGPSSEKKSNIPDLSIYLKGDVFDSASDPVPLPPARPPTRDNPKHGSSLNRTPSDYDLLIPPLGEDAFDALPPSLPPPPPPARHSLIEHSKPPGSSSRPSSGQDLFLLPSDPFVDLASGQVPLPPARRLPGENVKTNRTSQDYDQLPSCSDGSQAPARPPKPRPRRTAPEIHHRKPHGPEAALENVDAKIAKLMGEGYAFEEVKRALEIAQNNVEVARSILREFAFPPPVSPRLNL

`Cn1cnnc1CC1(c2cccc(N3Cc4c(cc(CN5CCC[C@@H](F)C5)cc4C(F)(F)F)C3=O)c2)COC1`: the “fold change (FC)” value in experiment [1] is listed as “>=1.001”; in experiment [2], 1.31; in experiment [3], 1.31; in experiment [5], “>=0.201”; in experiment [6], “>=7.5”; in experiment [7], “>=7.5”. Besides, the IC50 in experiment [4] was < 100 nM.
As for `Cn1cnnc1CC1(c2cccc(N3Cc4c(cccc4C(F)(F)F)C3=O)c2)CC(F)(F)C1`, the “fold change (FC)” value is “>=1.001” in experiment [1]; 1.01 in experiment [2]; 1.01 in experiment [3]; “>=0.201” in experiment [5]; 5 in experiment [6]; 2.51 in experiment [7]. The IC50 in experiment [4] was < 100 nM.
`Cc1cc(C(=O)Nc2cccc(C3(C(F)(F)c4nncn4C)COC3)c2)nc(C2CC2)n1`: the “fold change (FC)” value in experiment [1] was found to be 0.801; in experiment [2], 1.31; in experiment [3] it was 1.01; in experiment [5], 0.101; in experiment [6], 5; in experiment [7] it was 2.51. Moreover, the IC50 in experiment [4] is < 100 nM.
As to `CCOc1cc(N2Cc3c(cc([C@H](C)N4CC[C@H](F)C4)cc3C(F)(F)F)C2=O)cc(C2(Cc3nncn3C)COC2)c1`, the “fold change (FC)” value in experiment [1] was “>=1.001”; in experiment [2] it was 1.51; in experiment [3] it was 1.31; in experiment [5], 0.151; in experiment [6], “>=7.5”; in experiment [7] it was 2.51. In experiment [4], the half-inhibitory concentration (IC50) is < 100 nM.
Turning to `Cn1cnnc1CC1(c2cccc(N3Cc4c(cc(N5CC(C(F)(F)F)C5)cc4C(F)(F)F)C3=O)c2)COC1`, the “fold change (FC)” value is “>=1.001” in experiment [1]; 1.01 in experiment [2]; 1.01 in experiment [3]; 0.051 in experiment [5]; “>=7.5” in experiment [6]; 2.51 in experiment [7]. In addition, in experiment [4], the concentration for half-maximal inhibition (IC50) is < 100 nM.
For `C[C@H](c1cc2c(c(C(F)(F)F)c1)CN(c1cccc(C3(Cc4nncn4C)COC3)c1)C2=O)N1CCC2(CC1)CC2`, the “fold change (FC)” value in experiment [1] is reported as “>=1.001”; in experiment [2] it was 1.01; in experiment [3], 1.01; in experiment [5], “>=0.201”; in experiment [6], “>=7.5”; in experiment [7] it was “>=7.5”. Also, in experiment [4], the IC50 was < 100 nM.
In the case of `Cn1cnnc1CC1(c2cccc(N3Cc4c(cc(C5CCCOC5)cc4C(F)(F)F)C3=O)c2)COC1` (stereo not drawn), the IC50 in experiment [4] is < 100 nM.
Regarding `Cn1cnnc1CC1(c2cccc(N3Cc4c(cc(CN5CC6CC(C5)C6(F)F)cc4C(F)(F)F)C3=O)c2)COC1`, in experiment [4], the IC50 is < 100 nM.
On the same count and under the same terms, the figure for `Cn1cnnc1CC1(c2cccc(N3Cc4c(cc(CN5CCOC(C6CC6)C5)cc4C(F)(F)F)C3=O)c2)COC1` (stereo not drawn) is < 100 nM.
Still for that read-out and setting: the same measure for `Cn1cnnc1CC1(c2cccc(N3Cc4c(cc(CN5Cc6cccc(C#N)c6C5)cc4C(F)(F)F)C3=O)c2)COC1`: < 100 nM; for `Cc1cc(C(=O)Nc2cccc(C3(Cc4nncn4C(F)F)COC3)c2)nc(C2CC2)n1`: < 100 nM; for `C[C@@H](Sc1nncn1C)c1ccc(F)c(N2Cc3c(cccc3C(F)(F)F)C2=O)c1`: > 10000 nM.
On the same count and under the same terms, the same measure for `Cn1cnnc1CC1(c2cccc(N3Cc4c(cc(CN5CCN6C(=O)CCC6C5)cc4C(F)(F)F)C3=O)c2)COC1` (stereo not drawn): < 100 nM; for `Cn1cnnc1CC1(c2cccc(N3Cc4c(cc(CC5CNCCC5=O)cc4C(F)(F)F)C3=O)c2)COC1` (stereo not drawn): < 100 nM; for `C[C@@H]1CN(Cc2cc3c(c(C(F)(F)F)c2)CN(c2cccc(-c4c(-c5nncn5C)cnn4C)c2)C3=O)CCO1`: < 100 nM.
In the case of `C[C@@H]1CN(Cc2cc3c(c(C(F)(F)F)c2)CN(c2cccc(-c4c(-c5nncn5C)cnn4C)c2)C3=O)C[C@H](C)O1`, the IC50 in experiment [4] is < 100 nM.
Same read-out and setting: the figure for `Cn1cnnc1CC1(c2cccc(N3Cc4c(cc(CN5CCO[C@H](CO)C5)cc4C(F)(F)F)C3=O)c2)COC1` is < 100 nM; for `C[C@@H]1CN(Cc2cc3c(c(C(F)(F)F)c2)CN(c2cccc(C4(Cc5nncn5C)COC4)c2)C3=O)C[C@H](C)O1` it is < 100 nM; for `CC1=C(c2cc3c(c(C(F)(F)F)c2)CN(c2cccc(C4(Cc5nncn5C)COC4)c2)C3=O)CCO1` it is < 100 nM.
As for `Cn1cnnc1CC1(c2cccc(N3Cc4c(cc(CN5CCOC(CC(F)(F)F)C5)cc4C(F)(F)F)C3=O)c2)COC1` (stereo not drawn), the IC50 in experiment [4] was < 100 nM.
Same read-out and setting: the same measure for `Cn1cnnc1CC1(c2cccc(N3Cc4c(cc(C(O)C(F)(F)F)cc4C(F)(F)F)C3=O)c2)COC1` (stereo not drawn): < 100 nM.
The same measure, in the same setting: the same measure for `Cn1cnnc1CC1(c2cccc(N3Cc4c(cc(CN5CCOC(C6CCC6)C5)cc4C(F)(F)F)C3=O)c2)COC1` (stereo not drawn): < 100 nM; for `Cn1cnnc1CC1(c2cccc(N3Cc4c(cc(CN5CCc6ccncc6C5)cc4C(F)(F)F)C3=O)c2)COC1`: < 100 nM.
Still for that read-out and setting: the figure for `Cn1cnnc1CC1(c2cccc(N3Cc4c(cc(CN5CCO[C@H](C(F)(F)F)C5)cc4C(F)(F)F)C3=O)c2)COC1` is < 100 nM; for `Cn1cnnc1CC1(c2cccc(N3Cc4c(cc(CN5CC[C@@H](c6ccccc6)C5)cc4C(F)(F)F)C3=O)c2)COC1` it is < 100 nM.
Consider `Cn1cnnc1CC1(c2cccc(N3Cc4c(cc(CN5CCOC6(CCOC6)C5)cc4C(F)(F)F)C3=O)c2)COC1` (stereo not drawn), for which the IC50 in experiment [4] is < 100 nM.
The same measure, in the same setting: the figure for `Cn1cnnc1CC1(c2cccc(N3Cc4c(cc(CN5CCC(F)(F)C(O)C5)cc4C(F)(F)F)C3=O)c2)COC1` (stereo not drawn) is < 100 nM.
The same measure, in the same setting: the figure for `Cn1cnnc1CC1(c2cccc(N3Cc4c(cc(CN5CCc6ncccc6C5)cc4C(F)(F)F)C3=O)c2)COC1` is < 100 nM; for `Cn1cnnc1CC1(c2cccc(N3Cc4c(cc(CN5CC[C@@H](F)[C@H](F)C5)cc4C(F)(F)F)C3=O)c2)COC1` it is < 100 nM; for `Cn1cnnc1CC1(c2cccc(N3Cc4c(cc(CN5Cc6cccc(Cl)c6C5)cc4C(F)(F)F)C3=O)c2)COC1` it is < 100 nM.
Same read-out and setting: the figure for `C[C@@H]1CCN(Cc2cc3c(c(C(F)(F)F)c2)CN(c2cccc(C4(Cc5nncn5C)COC4)c2)C3=O)C[C@@H]1F` is < 100 nM.
Take `CN(c1cc2c(c(C(F)(F)F)c1)CN(c1cccc([C@@](C)(F)C(F)(F)c3nncn3C)c1)C2=O)[C@@H]1CNC[C@H]1F`: in experiment [4], the 50% inhibitory concentration (IC50) is < 100 nM.
On the same count and under the same terms, the figure for `Cc1nnnn1CC(C)c1cccc(NC(=O)c2cccc(C(F)(F)F)n2)c1` (stereo not drawn) is > 10000 nM; for `COC[C@@H]1CN(Cc2cc3c(c(C(F)(F)F)c2)CN(c2cccc(C4(Cc5nncn5C)COC4)c2)C3=O)CCO1` it is < 100 nM.
`Cc1cc(C(=O)Nc2cccc(C3(Cc4[nH]ncc4C)COC3)c2)nc(C2CC2)n1`: the IC50 in experiment [4] is < 100 nM.
Same read-out and setting: the figure for `Cn1cnnc1CC1(c2cccc(N3Cc4c(cc(CN5CCc6cccnc6C5)cc4C(F)(F)F)C3=O)c2)COC1` is < 100 nM; for `CC(c1cc2c(c(C(F)(F)F)c1)CN(c1cccc(C3(Cc4nncn4C)COC3)c1)C2=O)n1ccnc1` (stereo not drawn) it is < 100 nM.
Turning to `Cn1cnnc1CC1(c2cccc(N3Cc4c(cc(CN5CCOC(CCF)C5)cc4C(F)(F)F)C3=O)c2)COC1` (stereo not drawn), the concentration for half-maximal inhibition (IC50) in experiment [4] was < 100 nM.
With `Cn1cnnc1CC1(c2cccc(N3Cc4c(cc(CN5CCc6cnccc6C5)cc4C(F)(F)F)C3=O)c2)COC1`, in experiment [4], the IC50 was < 100 nM.
Still for that read-out and setting: the same measure for `Cn1cnnc1CC1(c2cccc(N3Cc4c(cc(CN5CCC(F)CC5)cc4C4CC4)C3=O)c2)COC1`: < 100 nM; for `CN1CC[C@H](O)C(Cc2cc3c(c(C(F)(F)F)c2)CN(c2cccc(C4(Cc5nncn5C)COC4)c2)C3=O)C1` (single isomer, unassigned): < 100 nM.
Same read-out and setting: the same measure for `Cn1cnnc1CC1(c2cccc(N3Cc4c(cc(CN5CCOC(CF)C5)cc4C(F)(F)F)C3=O)c2)COC1` (stereo not drawn): < 100 nM; for `Cn1cnnc1CC1(c2cccc(N3Cc4c(cc(CN5Cc6ccc(Cl)cc6C5)cc4C(F)(F)F)C3=O)c2)COC1`: < 100 nM.
As to `CC(c1cc2c(c(C(F)(F)F)c1)CN(c1cccc(C3(C(F)(F)c4nncn4C)COC3)c1)C2=O)N1CC[C@H](F)C1` (stereo partly drawn), the 50% inhibitory concentration (IC50) in experiment [4] was < 100 nM.
`C[C@H](Sc1nncn1C)c1cccc(NC(=O)c2cccc(N(C)C)c2)c1`: in experiment [4], the concentration for half-maximal inhibition (IC50) was > 10000 nM.
Same read-out and setting: the figure for `Cn1cnnc1CC1(c2cccc(N3Cc4c(cc(CN5CC[C@H](F)[C@@H](F)C5)cc4C(F)(F)F)C3=O)c2)COC1` is < 100 nM.
The same measure, in the same setting: the figure for `COc1ccc2c(c1)CN(Cc1cc3c(c(C(F)(F)F)c1)CN(c1cccc(C4(Cc5nncn5C)COC4)c1)C3=O)CC2` is < 100 nM; for `Cn1cnnc1CC1(c2cccc(N3Cc4c(cc(CN5CC[C@@H](F)[C@@H](F)C5)cc4C(F)(F)F)C3=O)c2)COC1` (relative stereo) it is < 100 nM; for `Cn1cnnc1CC1(c2cccc(N3Cc4c(cc(CN5CC[C@@H]6NCCO[C@@H]6C5)cc4C(F)(F)F)C3=O)c2)COC1` (relative stereo) it is < 100 nM.
On the same count and under the same terms, the same measure for `Cn1cnnc1CC1(c2cccc(N3Cc4c(cc(CN5CCOC(CCO)C5)cc4C(F)(F)F)C3=O)c2)COC1` (stereo not drawn): < 100 nM; for `C[C@@H](Cc1n[nH]cc1CO)c1cccc(N2Cc3c(cccc3C(F)(F)F)C2=O)c1`: > 10000 nM.
Turning to `Cn1cnnc1CC1(c2cccc(N3Cc4c(cc(CN5CCOC6(CC6)C5)cc4C(F)(F)F)C3=O)c2)COC1`, the half-inhibitory concentration (IC50) in experiment [4] was < 100 nM.

Source of the values: ChEMBL document CHEMBL5050844 (2019).
